What was measured:
[1] = test system: purified enzyme protein (transaminase); assay: Reactivity of purified transaminase to carbonyl compounds with (R)-1-phenylethylamine as amino group donor; format: biochemical, Arthrobacter species KNK168; conditions: 25 mM carbonyl compound, 25 mM (R)-1-phenylethylamine, pH 8.5, 30° C.; pyruvic acid = 100
Description: Using the purified enzyme protein obtained in Example 9, reactivities to various carbonyl compounds using (R)-1-phenylethylamine as an amino group donor were evaluated. A 50 μl solution of the purified enzyme protein was added to 200 μl substrate solution [0.1 M Tris-HCl buffer (pH 8.5), 25 mM (R)-1-phenylethylamine, 0.1 mM pyridoxal phosphate, and 25 mM various carbonyl compounds], and the mixture was reacted at 30° C. for 1 to 3 hours in tube. The reaction tube was transferred into boiling water to stop the reaction, and thereafter, the reaction mixture was diluted five-folds with methanol. This diluted solution was analyzed by high-performance liquid chromatography using a fine pack C18-5 column and using methanol-water (20:80) as an eluent to quantitate acetophenone formed by the reaction.

[2] = test system: Arthrobacter species KNK168 strain; assay: Amino group donors in whole-cell transamination of 1-(3,4-dimethoxyphenyl)-2-propanone; format: cell-based
Description: The cultured cells were harvested by centrifugation, and the harvested cells were suspended in a reaction mixture (pH 8.5) containing 1% 1-(3,4-dimethoxyphenyl)-2-propanone, 0.1% Triton X-100, and 1% an amino group donor shown in Table 5. The mixture was reacted at 35° C. for 20 hours.

[3] = test system: Transaminase of Present Invention (purified enzyme); assay: Reactivity of purified transaminase to amino compounds (amino group donors) with pyruvic acid as acceptor; format: biochemical, Arthrobacter sp. KNK168; parameters: Substrate Specificity, relative activity: concentration or dose not given beside the values; conditions: for Relative Activity: amino compound 40 mM in substrate solution, pyruvic acid acceptor, pH 8.3, 30° C., 1 hour, (R)-1-phenylethylamine = 100
Source text: (§1) The differences with the ω-amino acid transaminase derived from Pseudomonas sp. F-1 (Agric. Biol. Chem., 42, 2363–2367 (1978), Agric. Biol. Chem., 43, 1043–1048 (1979), J. Biol. Chem., 258, 2260–2265 (1983)) which have been well studied among the ω-amino acid transaminases, and with the benzylamine transaminase of Okada et al. (Japanese Patent Laid-Open No. Hei 6-178685) are summarized and shown in Table 2. In a case of the transaminase reaction in the present invention, the data of the purified enzyme are used, and in cases of those by other two enzymes, the data of the purified enzymes which are disclosed in each of the literature publication and laid-open patent publication are used. Pyruvic acid is used as an amino group acceptor in all cases.
Using the purified enzyme protein obtained in Example 9, reactivities to various amino compounds when using pyruvic acid as an amino acceptor were evaluated. A 150 μl solution of the purified enzyme protein solution diluted ten-folds was added to a 150 μl substrate solution [0.1 M potassium phosphate buffer (pH 8.3), 40 mM pyruvic acid, 0.1 mM pyridoxal phosphate, and 40 mM various amino compounds]. The components were reacted at 30° C. for 1 hour. The reaction tube was transferred into boiling water to stop the reaction, and thereafter, a part of the reaction mixture was diluted five-folds. Ten μl 0.1 M boric acid buffer (pH 8.0) and a 20 μl ethanol solution of 80 mM 4-fluoro-7-nitro-2,1,3-benzoxadiazole (NBD-F) were added to the 10 μl above-mentioned diluted reaction mixture. The resulting mixture was reacted at 60° C. for 1 minute, and thereafter, the resulting mixture was ice-cooled, and 460 μl 5 mM HCl was added thereto. This reaction mixture was analyzed by high-performance liquid chromatography using a fine pack C18-5 column (manufactured by Nippon Bunko) I and using 0.1 M potassium phosphate buffer (pH 6.5) and CH3CN (90:10) as an eluent to detect formation of NBD-Alanine with an excitation wavelength of 470 nm and a detection wave of […]. The results thereof are shown in Table 8 in terms of relative activity in the case of using […] as a substrate.

[4] = target: T1, ω-amino acid transaminase (Pseudomonas putida, UniProt P28269); conditions: purified enzyme, literature; pyruvic acid as amino group acceptor; cited from earlier work
T1 sequence (P28269 1-449): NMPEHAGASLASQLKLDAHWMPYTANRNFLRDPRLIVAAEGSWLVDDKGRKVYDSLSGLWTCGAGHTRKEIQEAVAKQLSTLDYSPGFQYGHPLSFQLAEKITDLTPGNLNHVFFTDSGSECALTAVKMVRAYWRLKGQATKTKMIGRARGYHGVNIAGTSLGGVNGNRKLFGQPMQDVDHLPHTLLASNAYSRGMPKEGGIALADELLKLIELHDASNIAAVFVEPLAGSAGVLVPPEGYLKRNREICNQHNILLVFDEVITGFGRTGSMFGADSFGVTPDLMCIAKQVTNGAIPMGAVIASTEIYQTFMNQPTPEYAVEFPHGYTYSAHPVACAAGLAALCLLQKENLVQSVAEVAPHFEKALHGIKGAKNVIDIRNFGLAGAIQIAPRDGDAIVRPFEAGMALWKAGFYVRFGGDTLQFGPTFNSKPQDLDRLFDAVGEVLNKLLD

[5] = test system: transaminase (intracellular enzyme); assay: Activity of the transaminase (intracellular enzyme) on typical substrates of ω-aminotransferases; format: biochemical, Arthrobacter sp. KNK168; conditions: amino group acceptor 2-ketoglutaric acid; (R)-1-phenylethylamine/pyruvic acid = 100 (control)
[6] = test system: Transaminase of Present Invention (purified enzyme); assay: Influence of reaction inhibitors on purified transaminase; format: biochemical, Arthrobacter sp. KNK168; conditions: inhibitor 1 mM; without addition = 100
Source text: as §1

[7] = 1% amino group donor, 1% 1-(3,4-dimethoxyphenyl)-2-propanone, 0.1% Triton X-100, pH 8.5, 35° C., 20 hours

For 2-Decane, the “Relative Activity” value [1] was 3%.
For `CC(CN)c1ccccc1` (racemic) [(RS)-1-Amino-2-phenylpropane], the “(R)-DMA Formed” value ([2]; pH 8.5) was 1.8%.
With `CC(N)c1ccccc1` (racemic) [(RS)-1-Phenylmethylamine] the “(R)-DMA Formed” value [2, 7] was 3.1%.
For `CC(N)CO` (racemic) [(RS)-2-Amino-1-propanol], the “(R)-DMA Formed” value [2, 7] was 9.6%.
With `NC(CO)c1ccccc1` (racemic) [(RS)-2-Amino-2-phenylethanol] the “(R)-DMA Formed” value [2, 7] was 48.4%.
With `NC(CO)Cc1ccccc1` (racemic) [(RS)-2-Amino-3-phenylpropanol] the “(R)-DMA Formed” value [2, 7] was 22.7%.
With `CC(N)CCc1ccccc1` (racemic) [(RS)-2-Amino-4-phenylbutane] the “(R)-DMA Formed” value [2, 7] was 27.6%.
In the case of `CC(N)CC(=O)O` (racemic) [DL-3-Aminobutyric acid], the “Action of the transaminase on the substance (in words)” value [3] is given as “does not act on”, the “Substrate Specificity, relative activity” value ([3]; purified enzyme, pyruvic acid as amino group acceptor) is given as 0% and the “Substrate Specificity, relative activity” value [4] is given as 96%.
With `NC(=O)CC(N)C(=O)O` (racemic) [DL-Asparagine] the “Relative Activity” value [5] was 0%.
For `NC(=O)CCC(N)C(=O)O` (racemic) [DL-Glutamine], the “Relative Activity” value [5] was 0%.
With `NCCCCC(N)C(=O)O` (racemic) [DL-Lysine] the “Relative Activity” value [5] was 0%.
In the case of `NCCCC(N)C(=O)O` (racemic) [DL-Ornithine], the “Relative Activity” value [5] was 0%.
In the case of `NC1C=CC=C(C(=O)O)C1` (racemic) [Gabaculine], the “Relative activity with inhibitor” value [6] was 24%.
For `COc1ccc(CC(C)=O)cc1OC` [1-(3,4-Dimethoxyphenyl)-2-propanone], the “Relative Activity” value [1] was 7%.
In the case of `COCC(C)=O` [1-Methoxy-2-propanone], the “Relative Activity” value [1] was 16%.
With `CCCCCCC(C)N` (centres unmarked) [1-Methylheptylamine] the “Relative Activity” value [3] was 47%.
With `CCC(C)N` (centres unmarked) [1-Methylpropylamine] the “Relative Activity” value [3] was 1.2%.
For `CCC(=O)Cc1ccccc1` [1-Phenyl-2-butanone], the “Relative Activity” value [1] was 1%.
For `O=C1CCCc2ccccc21` [1-Tetralone], the “Relative Activity” value [1] was 1%.
In the case of `NCCCC(N)C(=O)O` (centres unmarked) [2,5-Diaminovalerate], the “Relative Activity” value [5] was 2%.
With `CC(=O)c1ccco1` [2-Acetylfuran] the “Relative Activity” value [1] was 2%.
With `CC(=O)c1cnccn1` [2-Acetylpyrazine] the “Relative Activity” value [1] was 17%.
In the case of `CC(=O)c1ccccn1` [2-Acetylpyridine], the “Relative Activity” value [1] was 19%.
With `CC(=O)c1nccs1` [2-Acetylthiazole] the “Relative Activity” value [1] was 10%.
For `CC(=O)c1cccs1` [2-Acetylthiophene], the “Relative Activity” value [1] was 1%.
In the case of `CCC(=O)C(=O)O` [2-Ketobutyric acid], the “Relative Activity” value [1] was 7%.
In the case of `CCCCC(C)CN` (centres unmarked) [2-Methylhexylamine], the “Relative Activity” value [3] was 37%.

Reference: patent US7169592B2, “Producing optically active amino compounds” (Kaneka Corporation, priority 1997, dated 2007)
